Reference: PubChem BioAssay AID248 (DTP/NCI, 2004)
Where “and” joins values, the source holds several entries; their conditions need not be identical. Identical values can stand only once. Toxic doses and inconclusive results are not listed.

Test system: L1210 leukemia ip in BDF1 mice, survival T/C
Test: NCI In Vivo Anticancer Drug Screen. Data for tumor model L1210 Leukemia (intraperitoneal) in B6D2F1 (BDF1) mice
Settings: endpoint: mean survival time, higher = longer survival
Procedure, shortened: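 Read-out is survival time, reported as the treated-group measurement over the vehicle-control measurement.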

[1] = dose: 100.0 mg/kg/injection, schedule: Q01DX001 (ip), vehicle: saline
[2] = dose: 200.0 mg/kg/injection, schedule: Q01DX001 (ip), vehicle: saline
[3] = dose: 400.0 mg/kg/injection, schedule: Q01DX001 (ip), vehicle: saline
[4] = dose: 100.0 mg/kg/injection, schedule: Q01DX009 (ip), vehicle: saline with Tween-80
[5] = dose: 100.0 mg/kg/injection, schedule: Q04DX003 (ip), vehicle: saline with Tween-80
[6] = dose: 200.0 mg/kg/injection, schedule: Q01DX009 (ip), vehicle: saline with Tween-80
[7] = dose: 200.0 mg/kg/injection, schedule: Q04DX003 (ip), vehicle: saline with Tween-80
[8] = dose: 400.0 mg/kg/injection, schedule: Q01DX009 (ip), vehicle: saline with Tween-80
[9] = dose: 400.0 mg/kg/injection, schedule: Q04DX003 (ip), vehicle: saline with Tween-80
[10] = dose: 100.0 mg/kg/injection, schedule: Q01DX009 (ip), vehicle: Klucel (hydroxypropylcellulose) (HPC)
[11] = dose: 100.0 mg/kg/injection, schedule: Q04DX003 (ip), vehicle: Klucel (hydroxypropylcellulose) (HPC)
[12] = dose: 5.0 mg/kg/injection, schedule: Q01DX001 (ip), vehicle: saline
[13] = dose: 100.0 mg/kg/injection, schedule: Q04DX003 (ip), vehicle: saline
[14] = dose: 200.0 mg/kg/injection, schedule: Q04DX003 (ip), vehicle: saline

## O/N=C/c1ccc2ccccc2n1
dose: 18.75 mg/kg/injection, schedule: Q01DX009 (ip), vehicle: Klucel (hydroxypropylcellulose) (HPC)
  T/C: 105 % of control
dose: 18.75 mg/kg/injection, schedule: Q04DX003 (ip), vehicle: Klucel (hydroxypropylcellulose) (HPC)
  T/C: 97 % of control
dose: 37.5 mg/kg/injection, schedule: Q01DX009 (ip), vehicle: Klucel (hydroxypropylcellulose) (HPC)
  T/C: 100 % of control
dose: 37.5 mg/kg/injection, schedule: Q04DX003 (ip), vehicle: Klucel (hydroxypropylcellulose) (HPC)
  T/C: 103 % of control
dose: 75.0 mg/kg/injection, schedule: Q01DX009 (ip), vehicle: Klucel (hydroxypropylcellulose) (HPC)
  T/C: 113 % of control
dose: 75.0 mg/kg/injection, schedule: Q04DX003 (ip), vehicle: Klucel (hydroxypropylcellulose) (HPC)
  T/C: 97 % of control and 103 % of control

## C=CCc1ccc(OC(=O)Nc2ccc(S(=O)(=O)N(C)C)cc2)c(OC)c1
[1]
  T/C: 94 % of control
[2]
  T/C: 91 % of control
[3]
  T/C: 91 % of control

## CCOC(=O)C1C2OC(=O)C(C(=O)C2N=Nc2ccc(-c3ccc(N=NC4C(=O)C5C(=O)OC4C(C(=O)OCC)C5C4CC=CCC4)cc3)cc2)C1C1CC=CCC1 (stereo unspecified)
dose: 100.0 mg/kg/injection, schedule: Q01DX001 (ip), vehicle: other
  T/C: 86 % of control
[4]
  T/C: 108 % of control
[5]
  T/C: 100 % of control
dose: 200.0 mg/kg/injection, schedule: Q01DX001 (ip), vehicle: other
  T/C: 86 % of control
[6]
  T/C: 104 % of control
[7]
  T/C: 100 % of control
[8]
  T/C: 102 % of control
[9]
  T/C: 100 % of control

## O=[N+]([O-])c1ccc(S(=O)[O-])cc1.O=[N+]([O-])c1ccc(S(=O)[O-])cc1.[Zn+2]
dose: 75.0 mg/kg/injection, schedule: Q01DX001 (ip), vehicle: saline
  T/C: 102 % of control
dose: 150.0 mg/kg/injection, schedule: Q01DX001 (ip), vehicle: saline
  T/C: 110 % of control

## C/C(=N\n1c(-c2ccccc2)nc2ccccc2c1=O)c1ccc(C)cc1
[10]
  T/C: 98 % of control
dose: 200.0 mg/kg/injection, schedule: Q01DX009 (ip), vehicle: Klucel (hydroxypropylcellulose) (HPC)
  T/C: 96 % of control
dose: 400.0 mg/kg/injection, schedule: Q01DX009 (ip), vehicle: Klucel (hydroxypropylcellulose) (HPC)
  T/C: 100 % of control

## COc1ccccc1NC(N)=S
dose: 25.0 mg/kg/injection, schedule: Q01DX009 (ip), vehicle: Klucel (hydroxypropylcellulose) (HPC)
  T/C: 94 % of control
dose: 25.0 mg/kg/injection, schedule: Q04DX003 (ip), vehicle: Klucel (hydroxypropylcellulose) (HPC)
  T/C: 98 % of control
dose: 50.0 mg/kg/injection, schedule: Q01DX009 (ip), vehicle: Klucel (hydroxypropylcellulose) (HPC)
  T/C: 97 % of control
dose: 50.0 mg/kg/injection, schedule: Q04DX003 (ip), vehicle: Klucel (hydroxypropylcellulose) (HPC)
  T/C: 92 % of control
[10]
  T/C: 101 % of control
[11]
  T/C: 103 % of control

## CN(Cc1cnc2nc(N)nc(N)c2n1)c1ccc(C(=O)NC(CCC(=O)O)C(=O)O)cc1Cl (stereo unspecified)
dose: 1.25 mg/kg/injection, schedule: Q01DX001 (ip), vehicle: saline
  T/C: 114 % of control
dose: 2.0 mg/kg/injection, schedule: Q01DX015 (ip), vehicle: saline
  T/C: 291 % of control
dose: 2.5 mg/kg/injection, schedule: Q01DX001 (ip), vehicle: saline
  T/C: 114 % of control
[12]
  T/C: 118 % of control
dose: 7.5 mg/kg/injection, schedule: Q01DX015 (ip), vehicle: saline
  T/C: 166 % of control

## COC1CC2C(C[CH]1[Hg][Cl])C2(Cl)Cl (stereo unspecified)
dose: 3.13 mg/kg/injection, schedule: Q01DX009 (ip), vehicle: saline with Tween-80
  T/C: 103 % of control
dose: 6.25 mg/kg/injection, schedule: Q01DX009 (ip), vehicle: saline with Tween-80
  T/C: 94 % of control
dose: 6.25 mg/kg/injection, schedule: Q04DX003 (ip), vehicle: saline with Tween-80
  T/C: 105 % of control
dose: 12.5 mg/kg/injection, schedule: Q01DX009 (ip), vehicle: saline with Tween-80
  T/C: 96 % of control
dose: 12.5 mg/kg/injection, schedule: Q04DX003 (ip), vehicle: saline with Tween-80
  T/C: 96 % of control

## CC(C)=CCC/C(C)=C\CC1=C(O)c2ccccc2C(=O)C1=O
dose: 100.0 mg/kg/injection, schedule: Q01DX001 (ip), vehicle: water
  T/C: 96 % of control
dose: 100.0 mg/kg/injection, schedule: Q04DX003 (ip), vehicle: acetone
  T/C: 102 % of control
dose: 200.0 mg/kg/injection, schedule: Q01DX001 (ip), vehicle: water
  T/C: 100 % of control
dose: 200.0 mg/kg/injection, schedule: Q04DX003 (ip), vehicle: acetone
  T/C: 94 % of control

## O=c1oc2ccccc2c(O)c1C(c1ccc2c(c1)CCC2)c1c(O)c2ccccc2oc1=O
[11]
  T/C: 92 % of control
dose: 200.0 mg/kg/injection, schedule: Q04DX003 (ip), vehicle: Klucel (hydroxypropylcellulose) (HPC)
  T/C: 100 % of control
dose: 400.0 mg/kg/injection, schedule: Q04DX003 (ip), vehicle: Klucel (hydroxypropylcellulose) (HPC)
  T/C: 92 % of control

## O=C(O)c1cccc(C2CCCCC2)c1
dose: 75.0 mg/kg/injection, schedule: Q01DX001 (ip), vehicle: other
  T/C: 106 % of control
dose: 150.0 mg/kg/injection, schedule: Q01DX001 (ip), vehicle: other
  T/C: 97 % of control
dose: 300.0 mg/kg/injection, schedule: Q01DX001 (ip), vehicle: other
  T/C: 101 % of control

## CCOP(=O)(OCC)OCc1ccc(C)cc1
[5]
  T/C: 94 % of control
[7]
  T/C: 102 % of control
[9]
  T/C: 97 % of control

## C(/C=C/c1ccccc1)=C1c2ccccc2-c2ccccc21
[4]
  T/C: 88 % of control
[5]
  T/C: 90 % of control
[6]
  T/C: 98 % of control
[7]
  T/C: 93 % of control
[8]
  T/C: 96 % of control
[9]
  T/C: 95 % of control

## C/C=C(/C)C(=O)O[C@H]1CC[C@@]2(C)[C@@H]3CC[C@H]4[C@]5(O)C[C@H](O)[C@@]6(O)[C@@H](CN7C[C@@H](C)CC[C@H]7[C@@]6(C)O)[C@]5(O)C[C@@]42O[C@@]13O
dose: 0.5 mg/kg/injection, schedule: Q01DX001 (ip), vehicle: saline
  T/C: 95 % of control
dose: 1.0 mg/kg/injection, schedule: Q01DX001 (ip), vehicle: saline
  T/C: 98 % of control
dose: 1.5 mg/kg/injection, schedule: Q04DX003 (ip), vehicle: saline with Tween-80
  T/C: 102 % of control
dose: 2.0 mg/kg/injection, schedule: Q01DX001 (ip), vehicle: saline
  T/C: 95 % of control
dose: 4.0 mg/kg/injection, schedule: Q01DX001 (ip), vehicle: saline
  T/C: 101 % of control
[12]
  T/C: 95 % of control

## O=C(Nc1cccc(C2=NCCN2)c1)c1ccc2cc(C(=O)Nc3cccc(C4=NCCN4)c3)ccc2c1
dose: 7.5 mg/kg/injection, schedule: Q01DX Z (ip), vehicle: carboxymethylcellulose (CMC)
  T/C: 106 % of control
dose: 15.0 mg/kg/injection, schedule: Q01DX Z (ip), vehicle: carboxymethylcellulose (CMC)
  T/C: 104 % of control and 115 % of control
dose: 30.0 mg/kg/injection, schedule: Q01DX Z (ip), vehicle: carboxymethylcellulose (CMC)
  T/C: 104 % of control and 123 % of control
dose: 60.0 mg/kg/injection, schedule: Q01DX Z (ip), vehicle: carboxymethylcellulose (CMC)
  T/C: 119 % of control
dose: 120.0 mg/kg/injection, schedule: Q01DX Z (ip), vehicle: carboxymethylcellulose (CMC)
  T/C: 120 % of control

## CCCNCCN
dose: 50.0 mg/kg/injection, schedule: Q01DX009 (ip), vehicle: saline
  T/C: 98 % of control
dose: 100.0 mg/kg/injection, schedule: Q01DX009 (ip), vehicle: saline
  T/C: 102 % of control
[13]
  T/C: 97 % of control
[14]
  T/C: 99 % of control

## CN(C)CCCN1CCC2(CCCC(C(F)(F)F)C2)CC1 (stereo unspecified)
dose: 50.0 mg/kg/injection, schedule: Q01DX001 (ip), vehicle: saline
  T/C: 104 % of control
[1]
  T/C: 101 % of control
[2]
  T/C: 104 % of control

## CCOC(Nc1cc(Cl)cc(Cl)c1)C(=O)c1ccccc1 (stereo unspecified)
[1]
  T/C: 97 % of control
[2]
  T/C: 91 % of control
[3]
  T/C: 91 % of control

## O=S(=O)(O)c1ccc(O)c2ncccc12
[13]
  T/C: 95 % of control
[14]
  T/C: 101 % of control
dose: 400.0 mg/kg/injection, schedule: Q04DX003 (ip), vehicle: saline
  T/C: 101 % of control

## Cc1cccc(C)c1NC(=O)Nc1cccc2ccccc12
dose: 100.0 mg/kg/injection, schedule: Q01DX009 (ip), vehicle: gum acacia
  T/C: 93 % of control
dose: 100.0 mg/kg/injection, schedule: Q04DX003 (ip), vehicle: gum acacia
  T/C: 98 % of control
dose: 200.0 mg/kg/injection, schedule: Q04DX003 (ip), vehicle: gum acacia
  T/C: 95 % of control
dose: 400.0 mg/kg/injection, schedule: Q01DX009 (ip), vehicle: gum acacia
  T/C: 94 % of control
dose: 400.0 mg/kg/injection, schedule: Q04DX003 (ip), vehicle: gum acacia
  T/C: 91 % of control
